# From patent US10730882B2, “2-aminoquinazoline derivatives as P70S6 kinase inhibitors” (SENTINEL ONCOLOGY LIMITED, priority 2015, dated 2020)
# Like-named read-outs stand apart in the source and are kept apart here.
# What was measured:
# [1] = biological target: p70S6K (h) (Homo sapiens (Human), UniProt P23443); assay: p70S6K (h) kinase assay (radiometric, [γ-33P-ATP]); type: biochemical; details: read-out: (a) p70S6K1 IC50
# Protocol: (a) Determination of p70S6 Inhibitory Activity
# The ability of compounds of the invention to inhibit P70S6 kinase may be determined using the protocol below.
# 20 mM MOPS, 1 mM EDTA, 0.01% Brij-35, 5% Glycerol, 0.1% b-mercaptoethanol, 1 mg/mL BSA
# In a final reaction volume of 25 μL, p70S6K (h) (5-10 mU) is incubated with 8 mM MOPS pH 7.0, 0.2 mM EDTA, 100 μM KKRNRTLTV, 10 mM Mg acetate and [γ-33P-ATP](specific activity approx. 500 cpm/pmol, concentration as required). The reaction is initiated by the addition of the MgATP mix. After incubation for 40 minutes at room temperature, the reaction is stopped by the addition of 5 μL of a 3% phosphoric acid solution. 10 μL of the reaction mixture is then spotted onto a P30 filtermat and washed three times for 5 minutes in 75 mM phosphoric acid and once in methanol prior to drying and scintillation counting.
# [2] = in vivo cassette mouse model: brain and plasma concentrations following oral dosing; details: male CD-1 mice, 2.5 mg/kg per compound; for Kp at 3 h: brain and plasma, read-out: (b) Brain:Plasma ratio at 3 hours
# Protocol: (b) Evaluation of Brain and Plasma Concentrations in an In Vivo Cassette Mouse Model
# The compounds of this invention were evaluated in an in vivo cassette mouse model to determine brain and plasma concentrations following oral dosing. This is an industry-standard and recognised means to assess brain penetration of small molecules (for recent literature article, refer to: in vitro permeability analysis, pharmacokinetic and brain distribution study in mice of imperatorin, isoimperatorin and cnidilin in Radix Angelicae Dahuricae, Fitoterapia, Volume 85, March 2013, Pages 144-153). It is also recognised that higher brain concentrations (and higher ratios of brain:plasma concentration) lead to greater exposure in the brain—this is clearly advantageous if the brain is the site of action.
# For a single cassette study, male CD-1 mice were used (n=3 per timepoint, three timepoints: 1.0 hr, 3.0 hr and 8.0 hr).
# 5 compounds were dosed PO per cassette (dose level 2.5 mg/kg per compound, dose conc. 0.25 mg/ml, dose volume 10.0 ml/kg).
# Formulation used to solubilize compounds: 10% DMSO/90% hydroxypropyl-β-cyclodextrin (20% w/v aqueous)
# Sampling was terminal and plasma and brain matrices were generated. To prepare plasma samples, protein was precipitated using acetonitrile. To prepare brain samples, homogenisation and protein precipitation was performed with acetonitrile. Samples were analysed using HPLC-TOF MS using electrospray ionisation.
# The brain and plasma concentrations and brain-plasma ratios observed for the compounds tested are set out in the table below.
# [3] = tested on: MDA-MB-231 cells; assay: in vivo model of triple negative breast cancer (TNBC): tumour initiation and metastasis; design: species or system female athymic nude mice
# Description: (c) Evaluation of Efficacy of Compounds in Counter-Acting Tumour Initiation and Metastasis in an In Vivo Model of Triple Negative Breast Cancer (TNBC)
# It is known that S6K1 has a crucial role in the recurrence of TNBC cancers following surgery, mainly through the activity of S6K1 in promoting survival of cancer cells in the host via phosphorylation and activation of the anti-apoptotic protein Bcl2 and of Gli1 (Belletti 2014). In addition, S6K1 promotes metastasis of TNBC cells (Akar 2010, Hung 2014).
# In order to test the efficacy of an inhibitor of S6K1 in an in vivo model of tumour initiation and metastasis, the following experiment was established:
# A total of 22 female athymic nude mice (Hsd:Athymic Nude-Foxn1^nu) were purchased from Harlan (UK) and acclimatised for 7 days prior to study commencement. Animals were housed in IVC cages (5 per cage) with individual mice identified by ear punch. All animals were allowed free access to a standard certified commercial diet and sanitised water during the study. The holding room was maintained under standard conditions: 20-24° C., 40-70% humidity and a 12 h light/dark cycle.
# On day −1, animals were randomly assigned to treatment groups as indicated in the table below, and drug treatment commenced. On day 0, MDA-MB-231 cells (1×10^6 in matrigel) were implanted into the second mammary fat pad.
# The dosing route was PO and the formulation was as follows: 10% DMSO/90% hydroxypropyl-β-cyclodextrin (20% w/v aqueous).
# During the experiment, the following outcome measures were assessed:
# (1) Time to palpation of tumour (latency) (2) tumour volume (3) tumour and organ weights as a measure of metastasis (4) visual appearance of metastatic nodules in the lungs.
# At necroscopy the lungs of the vehicle and treated animals were examined for presence of metastatic nodules: […]
# [4] = tested on: FXS mice (Fmr1 KO); assay: audiogenic seizure assay (AGS), in vivo model of Fragile X Syndrome
# Description: (d) Evaluation of Compounds in the Audiogenic Seizure Assay, an In Vivo Model of Fragile X Syndrome (FXS)
# Seizures occur in conjunction with FXS and autism in up to one-quarter of children with these disorders (Berry-Kravis E (2002) Epilepsy in fragile X syndrome. Dev. Med. Child Neurol. 44(11):724-728). […] The audiogenic seizure assay (AGS) is a well-documented mouse model of FXS (Audiogenic seizures susceptibility in transgenic mice with fragile X syndrome, Epilepsia. 2000 January; 41(1):19-23). In such a model it is possible to dose compounds to observe effects on susceptibility of the mice to audiogenic seizures. The following AGS experiment was set up to test the efficacy of compounds of this application:
# The following experiment design was used:
# Strain of FXS mouse used: FVB background
# Vehicle used: 10% DMSO/90% hydroxypropyl-β-cyclodextrin (20% w/v aqueous)
# Animals were assessed in AGS following 7 consecutive days of dosing.
# The experimental chamber consisted of a plastic cage of dimensions 25×25×47 cm in which a doorbell (Electrical bell Heath Zenith, model 172C-A) had been mounted on the cage roof.
# Mice were taken from their housing room one by one and transferred into the experimental chamber and allowed to explore the novel environment (basal noise […]) for a period of 30 seconds after which point the bell was rung (124 dB) for a period of 60 seconds.
# The resulting motor responses were classified using a scale modified from the one originally described by Jobe et al. (1973): no response (NR: pause or continuous exploration), wild running (WR), seizure (S) or respiratory arrest and/or death (RA). The motor response rate is defined as the percentage of animals per group responding to the stimulus.
# [5] = brain, read-out: (b) Brain conc. at 3 hours
# [6] = plasma, read-out: (b) Plasma conc. at 3 hours
# [7] = mono-HCl salt, 100 mg/kg p.o. BID, 21 days, compared to control
# [8] = FXS (Fmr1 KO) mice, n=10, 50 mg/kg QD x 7 PO, mono-HCl salt, bell 124 dB for 60 seconds
# [9] = FXS mice, FVB background, following 7 consecutive days of dosing
# Chain of p70S6K (h) (P23443 whole entry): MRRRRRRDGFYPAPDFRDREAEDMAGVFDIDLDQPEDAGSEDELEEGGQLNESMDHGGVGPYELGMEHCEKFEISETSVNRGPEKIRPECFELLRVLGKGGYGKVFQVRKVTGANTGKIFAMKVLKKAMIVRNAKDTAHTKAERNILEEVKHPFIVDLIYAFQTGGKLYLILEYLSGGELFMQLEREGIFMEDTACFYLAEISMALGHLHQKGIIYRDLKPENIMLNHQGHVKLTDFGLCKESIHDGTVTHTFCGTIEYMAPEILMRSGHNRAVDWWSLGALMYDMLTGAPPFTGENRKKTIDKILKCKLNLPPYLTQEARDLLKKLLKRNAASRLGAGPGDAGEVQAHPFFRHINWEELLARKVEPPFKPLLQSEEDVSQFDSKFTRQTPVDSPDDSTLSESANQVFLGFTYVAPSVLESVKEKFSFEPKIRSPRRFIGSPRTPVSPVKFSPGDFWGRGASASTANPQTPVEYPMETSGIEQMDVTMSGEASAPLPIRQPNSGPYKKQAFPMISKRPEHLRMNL
SMILES,IC50 [1] [nM],Kp at 3 h [2],"concentration at 3 h [2, 5] [nM]","concentration at 3 h [2, 6] [nM]","Mean no. of lung nodules per animal ([3]; 100 mg/kg BID x 21, lungs examined at necroscopy, mono-HCl salt)","metastatic burden in the lungs ([3]; at necroscopy, spontaneous metastasis from a TNBC primary tumour)","tumour weight ([3]; day 21, mono-HCl salt, 100 mg/kg p.o. BID, compared to vehicle)","weight of liver ([3]; day 21, mono-HCl salt, 100 mg/kg p.o. BID, compared to vehicle treated group)","rate of incidence of tumour [3, 7]","time until appearance (palpation) of tumour [3, 7]","tumour volume [3, 7]","NR (no response: pause or continuous exploration), number of animals [4, 8]","RA (respiratory arrest and/or death), number of animals [4, 8]","S (seizure), number of animals [4, 8]","WR (wild running), number of animals [4, 8]","incidence of audiogenic seizures [4, 9]","severity of response (audiogenic seizure) [4, 9]"
"C[C@@H](Nc1ncc2cc(-c3ncnc4[nH]ncc34)ccc2n1)c1ccccc1 [Example 1, ((R)-1-Phenyl-ethyl)-[6-(1H-pyrazolo[3,4-d]pyrimidin-4-yl)-quinazolin-2-yl]-amine]",13,2.7,1600,580,0,effective in reducing the metastatic burden in the lungs,weighed significantly less,reduction in weight of liver,decreases the rate of incidence,delays time until appearance (palpation) of tumour,significant reduction in volume of tumours,9,0,0,1,reduced,reduced
"C[C@@H](Nc1ncc2cc(-c3ncnc4[nH]ncc34)ccc2n1)c1ccccc1F [Example 28, [(R)-1-(2-Fluoro-phenyl)-ethyl]-[6-(1H-pyrazolo[3,4-d]pyrimidin-4-yl)-quinazolin-2-yl]-amine]",15,2.6,1070,420,,,,,,,,,,,,,
"Fc1cccc(CNc2ncc3cc(-c4ncnc5[nH]ncc45)ccc3n2)c1 [Example 10, (3-Fluorobenzyl)-[6-(1H-pyrazolo[3,4-d]pyrimidin-4-yl)-quinazolin-2-yl]-amine]",18,1.7,840,500,,,,,,,,,,,,,
